Like-named read-outs stand apart in the source and are kept apart here.
What was measured:
[1] = Solubility in water at 25 °C; type: physicochemical; conditions: for solubility: read-out: WS, water solubility
Method: The characteristics: abbreviations (A), the molecular weight (MW), the solubility in water at 25 °C (WS), and the degree of substitution (DS) of the tested CDs are presented in Table 4 and Table 5.

[2] = tested on: A. fischeri; experiment: Optical density measurement, population growth assay; type: cell-based, Aliivibrio fischeri; conditions: for inhibition at 10000 µM: 10 mM; for inhibition at 2000 µM: 2 mM, read-out: inhibition of cell proliferation (population growth), maximum; for inhibition of population growth (optical density): within 30, 60 and 120 min, regardless of the concentration
Method: (§1) The bacterial strain A. fischeri (NRRL B-111 77) was cultured and maintained in the laboratory under axenic circumstances. The 16 h old (overnight) cell culture applied for the tests was prepared by inoculating 30 mL of Photobacterium medium with an ampoule of lyophilized bacteria. The culture was shaken in the dark at 160 rpm, 24 °C, to an optical density of 0.6 at 600 nm (OD600).
The measurements were carried out as described by Molnár et al. (2021). The OD was measured after the incubation period, following the bioluminescence inhibition assay with DIALAB ELx800 ELISA Microplate Reader (Dialab GmbH, Wiener Neudorf, Austria) at the wavelength of 630 nm.

[3] = tested on: A. fischeri; experiment: Bioluminescence inhibition assay in the Aliivibrio fischeri model system; type: cell-based; conditions: for EC20: 20% inhibition of bioluminescence after 120 min exposure; for inhibition at 2000 µM: read-out: inhibition of bioluminescence; for inhibitory effect on bioluminescence, upper limit in any case: any tested concentration and time, not statistically significant
Method: The time- and concentration-dependent effect of native α- and β-CDs, their N,N,N-trimethyl-ammoniopropyl derivatives, and novel alkylthio derivatives were tested in a series of short-term (30–120 min) experiments at 0.008–10 mM concentration range. To differentiate between the quorum-quenching effect and the cytotoxic effect of the CDs, bioluminescence as well as cell viability (the population growth and the enzyme activity) were determined.
as §1
The tested CD molecules were suspended in sterile distilled water and sterilized in an autoclave. A dilution series was prepared from the stock solutions (suspensions), covering a 0.04–50 mM concentration range.
The experiments were carried out with overnight A. fischeri cell culture in 96-well microtiter plates with a total volume of 250 µL. Fifty microliters of the members of the fivefold dilution series made from stock solutions were added to the wells of a sterile, transparent, 96-well, round-bottomed Sarstedt microtiter plate in four replicates. Distilled water was used as a negative control in the same volume.
To ensure the validity of data and verify the sensitivity of the bacteria, a five-member CuSO4 dilution series (1.6 ppm, 8 ppm, 40 ppm, 200 ppm, and […]) was used as a positive control. After that, 200 μL of the diluted overnight culture was added to the wells, except for the blank samples, for which 200 μL of Photobacterium medium was added instead.
The bioluminescence intensity was measured with a Fluostar Optima microplate reader (BMG Labtech, Ortenberg, Germany; fluorescence detection limit > 30 amol/well ATP) after 30, 60, and 120 min of exposure. The evaluation of the results was carried out as described by Ujaczki et al. (2015).
The determination of the concentration–response relationship is a method employed in the field of environmental toxicology, with the objective of objectively assessing the effects of different chemicals. The effective concentration endpoints (EC20 and EC50 values) of the tests are uniformly used for the quantification and comparison of the effects of chemicals and environmental matrices.

[4] = tested on: A. fischeri; experiment: Cell viability, tetrazolium (MTT) reduction assay; type: cell-based, Aliivibrio fischeri; conditions: 120 min; for inhibitive effect on cell viability, maximum: 0.08 mM; for inhibition in the viability: 10 mM
Method: The cell viability assay characterizing the activity of the hydrogen transport (the dehydrogenase enzyme activity) is based on the spectrophotometric measurement of the absorbance of a formazan product of the reduction in the tetrazolium salts.
The absorbance—which we determined after 120 min of exposure—is directly proportional to the metabolic activity of the cells.
To examine the potential influence of the CDs on the vitality of the bacteria, an enzyme activity assay was applied using 3-(4,5-dimethylthiazol-2-yl)-2,5-diphenyltetrazolium bromide (MTT).
Metabolically active cells reduce the […] MTT into a black formazan product, whose concentration is directly proportional to the activity of the viable cells. Following the population growth assay, the assay was performed in the same microplates by adding 30 μL of 4 mg/mL sterile MTT solution to each well.
The microtiter plate was then incubated for 30 min until color development.

[5] = tested on: A. fischeri; design: method as in PMID 33321169; conditions: cited from earlier work
[6] = Aggregation studies by dynamic light scattering (volume particle size distribution); type: physicochemical; conditions: 1% aqueous solution, 25 °C
Method: Most CDs are prone to aggregation in aqueous solution due to their numerous hydroxyl moieties.
The aggregation behavior (nanoparticle formation) was studied by photon correlation spectroscopy (dynamic light scattering) using Malvern Zetasizer Nano ZS (Malvern Instruments, Malvern, UK) equipment at 25 °C using 1% aqueous solution.

[7] = Aliivibrio fischeri, 0.5 h, 30 min
[8] = Aliivibrio fischeri, 1 h, 60 min
[9] = Aliivibrio fischeri, 2 h, 120 min

CCCCCCCCCCCCSC[C@H]1O[C@@H]2O[C@H]3[C@H](O)[C@@H](O)[C@@H](O[C@H]4[C@H](O)[C@@H](O)[C@@H](O[C@H]5[C@H](O)[C@@H](O)[C@@H](O[C@H]6[C@H](O)[C@@H](O)[C@@H](O[C@H]7[C@H](O)[C@@H](O)[C@@H](O[C@H]1[C@H](O)[C@H]2O)O[C@@H]7CO)O[C@@H]6CO)O[C@@H]5CO)O[C@@H]4CO)O[C@@H]3CO [6S-C12-α-CD (3), 6-monodeoxy-6-monododecanethiol-α-CD]
solubility [1]: > 10000 µg/mL | inhibition at 10000 µM [2, 7]: 50% | inhibition at 10000 µM [2, 8]: 54% | inhibition at 10000 µM [2, 9]: 59% | decrease in bioluminescence intensity ([3]; 0.4 mM, 120 min): 71% | decrease in bioluminescence intensity ([3]; 10 mM, 120 min): 79% | EC20 [3]: 60 µM | EC50 ([3]; Aliivibrio fischeri, 2 h): 160 µM | inhibition at 2000 µM ([3]; Aliivibrio fischeri, 2 h): 85% | decrease in cell viability, maximum ([4]; at 2 and 10 mM): 40%

CCCCCCCCCCCCSC[C@H]1O[C@@H]2O[C@H]3[C@H](O)[C@@H](O)[C@@H](O[C@H]4[C@H](O)[C@@H](O)[C@@H](O[C@H]5[C@H](O)[C@@H](O)[C@@H](O[C@H]6[C@H](O)[C@@H](O)[C@@H](O[C@H]7[C@H](O)[C@@H](O)[C@@H](O[C@H]8[C@H](O)[C@@H](O)[C@@H](O[C@H]1[C@H](O)[C@H]2O)O[C@@H]8CO)O[C@@H]7CO)O[C@@H]6CO)O[C@@H]5CO)O[C@@H]4CO)O[C@@H]3CO [6S-C12-β-CD (7), 6-monodeoxy-6-monododecanethiol-β-CD]
solubility [1]: > 10000 µg/mL | inhibition at 2000 µM [2, 7]: 72% | inhibition at 2000 µM [2, 8]: 69% | inhibition at 2000 µM [2, 9]: 65% | EC20 [3]: 90 µM | inhibition at 2000 µM ([3]; Aliivibrio fischeri, 0.5 h): 77% | inhibition at 2000 µM ([3]; Aliivibrio fischeri, 1 h): 76% | EC50 ([3]; Aliivibrio fischeri, 2 h): 760 µM | inhibition at 2000 µM ([3]; Aliivibrio fischeri, 2 h): 70% | vitality-reducing effect (cell viability) ([4]; 2 mM): 41%

OC[C@H]1O[C@@H]2O[C@H]3[C@H](O)[C@@H](O)[C@@H](O[C@H]4[C@H](O)[C@@H](O)[C@@H](O[C@H]5[C@H](O)[C@@H](O)[C@@H](O[C@H]6[C@H](O)[C@@H](O)[C@@H](O[C@H]7[C@H](O)[C@@H](O)[C@@H](O[C@H]8[C@H](O)[C@@H](O)[C@@H](O[C@H]1[C@H](O)[C@H]2O)O[C@@H]8CO)O[C@@H]7CO)O[C@@H]6CO)O[C@@H]5CO)O[C@@H]4CO)O[C@@H]3CO [β-CD (5), Native β-CD, reference compound]
inhibition at 80 µM ([2]; Aliivibrio fischeri, 0.5 h, read-out: inhibition of population growth, maximum): ≤ 34% | inhibitory effect on bioluminescence, upper limit in any case [3]: ≤ 35% | inhibitive effect on cell viability, maximum [4]: 15%

OC[C@H]1O[C@@H]2O[C@H]3[C@H](O)[C@@H](O)[C@@H](O[C@H]4[C@H](O)[C@@H](O)[C@@H](O[C@H]5[C@H](O)[C@@H](O)[C@@H](O[C@H]6[C@H](O)[C@@H](O)[C@@H](O[C@H]7[C@H](O)[C@@H](O)[C@@H](O[C@H]8[C@H](O)[C@@H](O)[C@@H](O[C@H]9[C@H](O)[C@@H](O)[C@@H](O[C@H]1[C@H](O)[C@H]2O)O[C@@H]9CO)O[C@@H]8CO)O[C@@H]7CO)O[C@@H]6CO)O[C@@H]5CO)O[C@@H]4CO)O[C@@H]3CO [γ-CD]
quorum-quenching efficacy (reduction of bacterial bioluminescence) ([5]; previous study): ineffective

N,N,N-Trimethylammoniopropyl-6-monodeoxy-6-monodecanethiol-α-CD [QA-6S-C10-α-CD (4)]
inhibition of population growth (optical density) [2]: up to 30% | reduction of bioluminescence ([3]; 1 mM, 120 min): 69% | EC20 [3]: 200 µM | EC50 ([3]; 50% inhibition of bioluminescence after 120 min exposure, read-out: EC50): 240 µM | inhibition of the enzyme activity (cell viability) ([4]; regardless of concentration): 24–27%

N,N,N-Trimethylammoniopropyl-6-monodeoxy-6-monohexadecanethiol-β-CD [QA-6S-C16-β-CD (9)]
WS, water solubility [1]: ~10000 µg/mL | inhibition of population growth ([2]; 5 mM, 120 min): 38% | inhibitory effect (QS inhibition, bioluminescence) ([3]; 1 mM, time not stated): 48% | EC20 [3]: 170 µM | inhibition of cell viability ([4]; 5 mM): 35% | average size of larger aggregates [6]: 111 nm | size of larger aggregates with high polydispersity [6]: 50–500 nm

N,N,N-Trimethylammoniopropyl-α-CD [QA-α-CD (2), reference compound]
inhibition of population growth (optical density) [2]: up to 30% | EC20 [3]: 3140 µM | inhibition of bioluminescence (significance) ([3]; tested concentrations 0.08-10 mM, examined period 30-120 min): no significant inhibition | inhibition in the viability [4]: 41%

N,N,N-Trimethylammoniopropyl-β-CD [QA-β-CD (6), reference compound]
WS, water solubility [1]: >500000 µg/mL | inhibition of population growth, maximum ([2]; 0.08 mM, 30 min of exposure): ≤ 34% | inhibitory effect on bioluminescence, upper limit in any case [3]: ≤ 35% | inhibitive effect on cell viability, maximum [4]: 10%

Native α-CD [α-CD (1), reference compound]
inhibition of population growth (optical density) [2]: up to 30% | inhibition of bioluminescence (significance) [3]: no significant inhibition | EC20 [3]: 80 µM | inhibition in the viability [4]: 29% | inhibition of bioluminescence ([5]; 10 mM, 120 min exposure time): over 60%
